The structures appear in SMILES notation.

Results on 7 compounds are retold here after US9018258B2, “Substituted 1-benzylcycloalkylcarboxylic acids and the use thereof” (Bayer Intellectual Property GmbH, priority 2010, dated 2015).

For assay [1], the target named is T1, sGC (Rattus norvegicus, UniProt P20595).
T1 construct: expressed in transfected cells; host or cells: CHO reporter cell
As to the kind of experiment: Action at a recombinant guanylate cyclase reporter cell line (CHO reporter cell). Format: cell-based. Particulars: CHO reporter cell in vitro. The procedure:
The cellular action of the compounds according to the invention is determined at a recombinant guanylate cyclase reporter cell line, as described in F. Wunder et al., Anal. Biochem. 339, 104-112 (2005).

The target of assay [2] is T2, soluble guanylate cyclase (sGC) (Rattus norvegicus, UniProt P20595).
T2 construct: made in house; host or cells: Sf9 insect cells (baculovirus)
As to the kind of experiment: Stimulation of sGC enzyme activity (PPi detection, luciferase). Format: biochemical. Conditions: sGC enzyme in vitro; for EC50: read-out: EC50 (concentration at 50% of maximum efficacy), activating action at the sGC enzyme. The method, then:
Soluble guanylate cyclase (sGC) converts on stimulation GTP into cGMP and pyrophosphate (PPi). PPi is detected with the aid of the assay described below. The signal produced in the assay increases as the reaction progresses and serves as a measure of the sGC enzyme activity under the given stimulation.
To carry out the assay, 29 μl of enzyme solution [0-10 nM soluble guanylate cyclase (prepared according to Honicka et al., J. Mol. Med. 77, 14-23 (1999)) in 50 mM TEA, 2 mM MgCl2, 0.1% BSA (fraction V), 0.005% Brij®, pH 7.5] are initially introduced into a microplate, and 1 μl of the substance to be tested (as a serially diluted solution in DMSO) is added. The mixture is incubated at room temperature for 10 min. Then 20 μl of detection mix [1.2 nM Firefly Luciferase (Photinus pyralis luciferase, Promega), 29 μM dehydroluciferin (prepared according to Bitler & McElroy, Arch. Biochem. Biophys. 72, 358 (1957)), 122 μM luciferin (Promega), 153 μM ATP (Sigma) and 0.4 mM DTT (Sigma) in 50 mM TEA, 2 mM MgCl2, 0.1% BSA (fraction V), 0.005% Brij®, pH 7.5] are added. The enzyme reaction is started by adding 20 μl of substrate solution [1.25 mM guanosine 5′-triphosphate (Sigma) in 50 mM TEA, 2 mM MgCl2, 0.1% BSA (fraction V), 0.005% Brij®, pH 7.5] and measured continuously in a luminometer. The extent of the stimulation by the substance to be tested can be determined relative to the signal of the unstimulated reaction.
The activation of haem-free guanylate cyclase is examined by addition of 25 μM of 1H-1,2,4-oxadiazolo[4,3-a]quinoxalin-1-one (ODQ) to the enzyme solution and subsequent incubation for 30 minutes and compared to the stimulation of the native enzyme.

The target of assay [3] is T3, GAL4-PPARα (Homo sapiens, UniProt Q07869).
T3 construct: expressed in transfected cells
T3 sequence (Q07869 167-468): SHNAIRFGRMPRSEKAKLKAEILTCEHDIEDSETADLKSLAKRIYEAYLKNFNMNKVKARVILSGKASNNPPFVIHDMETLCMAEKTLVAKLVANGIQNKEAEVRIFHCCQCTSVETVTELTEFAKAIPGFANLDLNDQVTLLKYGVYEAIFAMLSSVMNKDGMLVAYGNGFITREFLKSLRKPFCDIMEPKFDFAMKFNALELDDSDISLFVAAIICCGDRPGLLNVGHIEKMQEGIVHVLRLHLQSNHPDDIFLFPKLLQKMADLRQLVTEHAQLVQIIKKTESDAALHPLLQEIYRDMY
The assay is described as follows: Cellular PPAR transactivation assay, GAL4-PPARα chimera in CHO-K1 cells. Format: cell-based. Particulars: for Emax: CHO-K1, maximum effect relative to reference compound (Example 73 of EP 1 452 521-A1 = 100%), read-out: PPARα efficacy; for EC50: CHO-K1 cells, luciferase reporter, 6 h stimulation. The source says: (§1) A cellular assay is used to test for potentially activating properties of the compounds according to the invention with respect to the three human isoforms of the peroxisome proliferator-activated receptors (PPARα, PPARγ and PPARδ).
(§2) Since mammalian cells contain different endogenous nuclear receptors which may complicate an unambiguous interpretation of the results, an established chimera system is used in which the respective ligand binding domain of the human PPAR isoforms is fused to the DNA binding domain of the yeast transcription factor GAL4. The resulting GAL4-PPARα, γ and δ chimeras are co-transfected and stably expressed in CHO cells having a reporter construct.
(§3) The GAL4-PPAR expression constructs contain the ligand binding domain of PPARα (amino acids 167-468), PPARγ (amino acids 203-506) and PPARδ (amino acids 138-442) which are PCR-amplified and cloned into the vector pcDNA3.1. The respective expression vectors already contain the GAL4 DNA binding domain (amino acids 1-147) of the vector pFC2-dbd (Stratagene). The reporter construct, which contains five copies of the GAL4 binding site upstream of a thymidine kinase promoter, expresses firefly luciferase (Photinus pyralis) following activation and binding of GAL4-PPARα, γ or δ.
(§4) The day before the test, CHO-K1 cells (chinese hamster ovary; ATCC CCL-61) each stably expressing one of the above-described GAL4-PPAR chimeras and the luciferase reporter gene construct are sown in medium [Optimem (GIBCO) with 2% activated carbon-purified foetal calf serum (Hyclone), 1.35 mM sodium pyruvate (GIBCO) and 0.2% sodium bicarbonate (GIBCO)] in a density of 1×10^3 cells in 96-well microtitre plates (Greiner) and kept in a cell incubator (96% atmospheric humidity, 5% v/v CO2, 37° C.). On the test day, the substances to be tested are taken up in the medium mentioned above, but without addition of calf serum, and added in various concentrations to the cells. After a stimulation period of 6 h, the luciferase activity is measured using a video camera. The relative light units measured give, as a function of the substance concentration, a sigmoidal stimulation curve. The EC50 values are calculated using the computer programme GraphPad PRISM (Version 3.02). The maximum effect of a test substance in the respective PPAR assay is determined as efficacy in percent in comparison to an appropriate reference compound whose maximum effect is defined as 100%.
(§5) The reference compound selected here was the compound 2-(3-{[(2-chloro-4-propoxybenzoyl)-amino]methyl}-4-ethoxybenzyl)tetrahydrofuran-2-carboxylic acid [Example 73 of EP 1 452 521-A1] which is described in the prior art as a potent pan-PPAR agonist.

For assay [4], the target named is T4, GAL4-PPARγ (Homo sapiens, UniProt P37231).
T4 construct: PPARγ (amino acids 203-506); expressed in transfected cells
T4 sequence (P37231 203-505 limits assumed): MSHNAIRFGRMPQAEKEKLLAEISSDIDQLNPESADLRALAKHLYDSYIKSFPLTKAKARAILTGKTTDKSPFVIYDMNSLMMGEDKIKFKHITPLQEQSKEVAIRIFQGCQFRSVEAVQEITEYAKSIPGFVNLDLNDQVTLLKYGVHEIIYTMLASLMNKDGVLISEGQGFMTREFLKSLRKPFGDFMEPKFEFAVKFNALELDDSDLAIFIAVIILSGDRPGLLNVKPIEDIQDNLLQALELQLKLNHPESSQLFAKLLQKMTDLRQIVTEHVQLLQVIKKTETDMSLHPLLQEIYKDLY
The assay is described as follows: Cellular PPAR transactivation assay, GAL4-PPARγ chimera in CHO-K1 cells. The class given is cell-based. Particulars: for Emax: CHO-K1, maximum effect relative to reference compound (Example 73 of EP 1 452 521-A1 = 100%), read-out: PPARγ efficacy; for EC50: CHO-K1 cells, luciferase reporter, 6 h stimulation.
Text: as §1, §2, §3, §4, §5

Assay [5] addresses T5, GAL4-PPARδ (Homo sapiens, UniProt Q03181).
T5 construct: PPARδ (amino acids 138-442); expressed in transfected cells
T5 sequence (Q03181 138-441 limits assumed): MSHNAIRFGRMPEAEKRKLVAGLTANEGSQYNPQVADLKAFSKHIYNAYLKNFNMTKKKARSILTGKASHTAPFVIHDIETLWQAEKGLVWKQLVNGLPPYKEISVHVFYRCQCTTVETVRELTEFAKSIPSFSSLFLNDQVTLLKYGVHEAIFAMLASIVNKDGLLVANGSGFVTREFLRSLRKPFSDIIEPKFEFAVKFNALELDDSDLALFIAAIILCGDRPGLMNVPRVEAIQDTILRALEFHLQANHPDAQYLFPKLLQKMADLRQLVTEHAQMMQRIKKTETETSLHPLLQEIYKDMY
The assay is described as follows: Cellular PPAR transactivation assay, GAL4-PPARδ chimera in CHO-K1 cells. Format: cell-based. Particulars: for Emax: CHO-K1, maximum effect relative to reference compound (Example 73 of EP 1 452 521-A1 = 100%), read-out: PPARδ efficacy; for EC50: CHO-K1 cells, luciferase reporter, 6 h stimulation.
Text: as §1, §2, §3, §4, §5

T1 sequence (P19686 whole entry partner): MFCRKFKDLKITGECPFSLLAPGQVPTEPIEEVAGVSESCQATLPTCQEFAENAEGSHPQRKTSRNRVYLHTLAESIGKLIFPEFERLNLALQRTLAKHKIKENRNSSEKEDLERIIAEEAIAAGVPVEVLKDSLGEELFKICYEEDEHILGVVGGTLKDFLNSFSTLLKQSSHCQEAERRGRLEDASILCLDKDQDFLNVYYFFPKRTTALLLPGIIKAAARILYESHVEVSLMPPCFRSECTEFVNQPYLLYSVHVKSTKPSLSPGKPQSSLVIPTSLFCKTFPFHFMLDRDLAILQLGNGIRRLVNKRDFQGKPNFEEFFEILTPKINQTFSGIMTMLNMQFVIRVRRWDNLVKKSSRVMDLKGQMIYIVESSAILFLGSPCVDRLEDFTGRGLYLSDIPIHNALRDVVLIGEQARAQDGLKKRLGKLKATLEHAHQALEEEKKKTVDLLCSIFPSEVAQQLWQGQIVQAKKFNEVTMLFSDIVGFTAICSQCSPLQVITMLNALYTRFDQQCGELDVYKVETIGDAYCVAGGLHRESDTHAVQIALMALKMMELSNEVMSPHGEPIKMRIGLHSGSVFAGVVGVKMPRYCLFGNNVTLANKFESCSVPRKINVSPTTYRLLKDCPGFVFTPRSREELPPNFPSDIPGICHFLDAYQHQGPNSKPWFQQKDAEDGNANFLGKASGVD
T1 sequence (P20595 whole entry): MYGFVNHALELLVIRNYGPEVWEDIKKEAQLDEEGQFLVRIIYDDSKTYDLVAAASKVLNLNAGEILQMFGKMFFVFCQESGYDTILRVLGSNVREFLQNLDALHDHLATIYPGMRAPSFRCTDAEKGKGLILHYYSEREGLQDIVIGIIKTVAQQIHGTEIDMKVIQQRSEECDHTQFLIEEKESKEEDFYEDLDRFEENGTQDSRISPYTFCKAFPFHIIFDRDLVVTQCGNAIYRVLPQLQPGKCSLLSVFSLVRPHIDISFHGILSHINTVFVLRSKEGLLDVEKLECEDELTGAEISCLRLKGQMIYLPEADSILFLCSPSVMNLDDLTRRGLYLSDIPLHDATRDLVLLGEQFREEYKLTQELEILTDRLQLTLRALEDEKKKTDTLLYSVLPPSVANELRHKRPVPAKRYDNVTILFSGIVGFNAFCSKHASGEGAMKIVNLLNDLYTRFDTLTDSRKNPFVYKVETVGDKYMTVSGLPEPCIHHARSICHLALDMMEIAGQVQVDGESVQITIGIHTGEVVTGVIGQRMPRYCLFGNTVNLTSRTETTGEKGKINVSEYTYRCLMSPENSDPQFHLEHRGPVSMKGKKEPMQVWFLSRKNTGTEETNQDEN
T2 sequence (P19686 whole entry partner): as the sequence (P19686 whole entry partner) above
T2 sequence (P20595 whole entry): as the sequence (P20595 whole entry) above

For the compound `O=C(Nc1cc(CC2(C(=O)O)CC2)ccc1F)[C@H](c1ccc(Cl)cc1)C1CCCC1` (single isomer, unassigned) [Example 62], the “MEC (minimum effective concentration), sGC-activating activity in the CHO reporter cell” value (from here on “MEC … in the CHO reporter cell”) in assay [1] stood at 1 nM. Besides, in assay [2], the “MEC (minimum effective concentration), activating action at the sGC enzyme” value (“MEC … at the sGC enzyme” for short) was 2.2 nM and the EC50 worked out at 30 nM.
Regarding `O=C(Nc1cc(CC2(C(=O)O)CC2)ccc1Cl)C(c1ccc(Cl)cc1)C1CCC(F)(F)C1` (single isomer, unassigned) [Example 73, 1-(4-Chloro-3-{[(4-chlorophenyl)(3,3-difluorocyclopentyl)acetyl]amino}benzyl)cyclopropane-carboxylic acid], in assay [1], the “MEC … in the CHO reporter cell” value came to 1.7 nM. In addition, the “MEC … at the sGC enzyme” value in assay [2] worked out at 3.8 nM. Moreover, the EC50 in assay [2] was 83 nM; in assay [3] it was above 10000 nM; in assay [4] it was above 10000 nM; in assay [5], above 10000 nM. For the same compound, the Emax in assay [3], in assay [4] and in assay [5] was 0% each time.
As to `CC(C(C(=O)Nc1cc(CC2(C(=O)O)CC2)ccc1Cl)c1ccc(CC(F)(F)F)cc1)C(F)(F)F` (single isomer, unassigned) [Example 82, 1-[4-Chloro-3-({4,4,4-trifluoro-3-methyl-2-[4-(2,2,2-trifluoroethyl)phenyl]butanoyl}amino)-benzyl]cyclopropanecarboxylic acid], the “MEC … in the CHO reporter cell” value in assay [1] is on record as 1.7 nM. For the same compound, in assay [2], the “MEC … at the sGC enzyme” value was 3.4 nM. Besides, the EC50 in assay [2] is 44 nM; in assay [3] it was above 10000 nM; in assay [4], 2300 nM; in assay [5] it was above 10000 nM. For the same compound, the Emax in assay [3] worked out at 0%; in assay [4], 20%; in assay [5] it was 0%.
Consider `[2H]C([2H])([2H])OC(c1ccc(Cl)c(NC(=O)[C@H](c2ccc(Cl)cc2)[C@@H](C)C(F)(F)F)c1)C1(C(=O)O)CCC1` (single isomer, unassigned) [Example 105], for which, in assay [1], the “MEC … in the CHO reporter cell” value stood at 3 nM. Besides, in assay [2], the “MEC … at the sGC enzyme” value was found to be 36 nM. The results for the EC50 in assay [2], in assay [3] and in assay [5] were 240 nM, above 10000 nM and above 10000 nM, respectively. The Emax in assay [3] worked out at 0%; in assay [4], 10%; in assay [5], 0%.
For `COC(c1ccc(Cl)c(NC(=O)[C@H](c2ccc(Cl)cc2)[C@@H](C)C(F)(F)F)c1)C1(C(=O)O)CCC1` (single isomer, unassigned) [Example 107], in assay [1], the “MEC … in the CHO reporter cell” value is listed as 3 nM. Also, the “MEC … at the sGC enzyme” value in assay [2] amounted to 22 nM. The EC50 is 330 nM in assay [2], above 10000 nM in assay [3], 2000 nM in assay [4] and above 10000 nM in assay [5]. Moreover, the values for the Emax in assay [3], in assay [4] and in assay [5] were 0%, 10% and 0%, respectively.
Regarding `O=C(Nc1cc(CC2(C(=O)O)CC2)ccc1F)[C@H](c1ccc(Cl)cc1)C1CCCC1(F)F` (single isomer, unassigned; (+)) [Example 68], the “MEC … in the CHO reporter cell” value in assay [1] was found to be 1 nM. The “MEC … at the sGC enzyme” value in assay [2] stood at 2.6 nM. Besides, the EC50 was 45 nM in assay [2], above 10000 nM in assay [3], above 10000 nM in assay [4] and above 10000 nM in assay [5]. Besides, the Emax in assay [3], in assay [4] and in assay [5] was 0% each time.
`COC(c1ccc(Cl)c(NC(=O)[C@H](c2ccc(Cl)cc2)[C@@H](C)C(F)(F)F)c1)C1(C(=O)O)CC1` (single isomer, unassigned; (+)) [Example 89]: the “MEC … in the CHO reporter cell” value in assay [1] turned out to be 3 nM. In addition, the “MEC … at the sGC enzyme” value in assay [2] is on record as 3.9 nM. Further, the EC50 in assay [2] was 70 nM; in assay [3], above 10000 nM; in assay [4] it was above 10000 nM; in assay [5], above 10000 nM. For the same compound, the Emax in assay [3], in assay [4] and in assay [5] was 0% in each case.
